Details of data set [1]: method as in doi:10.31925/farmacia.2018.5.20, PMID 30248903. As to conditions: in vivo; cited from earlier work.
Details of data set [2]: method as in doi:10.31925/farmacia.2018.5.20, PMID 30248903. As to conditions: acute inflammation, compared to diclofenac; cited from earlier work.
Data set [3] is described as follows: Lipophilicity by reversed-phase thin-layer chromatography (RP-TLC), isopropanol-water mobile phase. Type of data set: physicochemical. Particulars: for mRM (arithmetic mean of the experimental retention factors RM): RP-18F254s plates, isopropanol 70–90% in water; for RM0 (relative lipophilicity, RM extrapolated to pure water): Soczewinski Wachtmeister equation, isopropanol 70–90%; for PC1(RM): score of first principal component of RM values at isopropanol 70–90%; for b (slope): slope of RM versus isopropanol concentration; for φ0 (chromatographic hydrophobic index): φ0 = RM0/b; for lipophilicity (in words): chromatographic lipophilicity profile / lipophilicity descriptors. Here is the method: Lipophilicity was assessed by RP-TLC, using RP-[…] standard silica gel plates (20 × 10 cm) as the stationary phase. An isopropanol:water binary mixture was used as the mobile phase, with different isopropanol concentrations 70%, 75%, 80%, 85%, 90% for thiazolo[3,2-b][1,2,4]triazole (1a–16a) and imidazo[2,1-b][1,3,4]thiadiazole (1b–16b) compounds.
The standard solutions (1 mg/mL) used to investigate the lipophilicity of the synthesized compounds were prepared in dichloromethane (1a–16a compounds) and dimethylsulfoxide (1b–16b compounds). From the obtained solutions, 2 µL was applied manually on the chromatographic plates, at 15 mm from the baseline and 5 mm from the edges of the plate at a spot distance of 12 mm. This procedure was repeated three times. The chromatographic plate upward elution was performed in a chromatographic chamber previously saturated for 30 min with mobile phase, at normal atmospheric pressure and room temperature. The migration distance of the eluent was 80 mm. The chromatographic plates were visually inspected under UV light at λ = 254 nm to identify the compounds. In order to minimize possible experimental errors, three measurements were performed for each mobile phase. The retention factors (Rf) were calculated as the average of three determinations in each case.
Based on the Rf values, a variety of parameters can be determined to estimate the lipophilicity of the compounds. The isocratic retention factor (RM) was determined using the Bate–Smith and Westall equation [34]:RM = log(1/Rf − 1) where Rf = x/y and x = the migration distance of the compound, and y = the migration distance of the solvent front.
There is usually a linear correlation between the RM values and the concentration of the organic component in the mobile phase. For a better estimation of lipophilicity, RM0 was determined as the extrapolated retention factor, considering pure water as the mobile phase (Soczewinski Wachtmeister equation):RM = RM0 + bC where b is the slope of the curve, which indicates the rate at which the solubility of the compound increases in the mobile phase, C is the concentration of the isopropanol in the mobile phase, and RM0 is the RM of the compound when the concentration of isopropanol is zero (extrapolated value).
To estimate the lipophilicity of the compounds, φ0, representing the chromatographic hydrophobicity index, was also determined. It corresponds to the percentage (by volume) of the organic component in the mobile phase and can be determined according to the following formula:φ0 = RM0/b
In order to assess the lipophilicity of compounds, other more relevant lipophilicity parameters have been used, such as the arithmetic mean of the experimental retention factors (mRM), and the score associated with the first principal component (PC1(RM)) obtained by applying principal component analysis (PCA) to the retention parameters RM [35, 36]. The determination of these parameters eliminates the errors that appear during the extrapolation procedure (when determining RM0) so that the results are more accurate.

For the molecule `Clc1ccc(-c2nn3cc(-c4ccccc4)nc3s2)cc1` [Compound 5b], the pain threshold result in data set [1] is on record as “increased pain threshold”. The “in vivo anti-inflammatory activity” value in data set [2] is given as “significantly reduced acute inflammation in vivo”. Besides, in data set [3], the “mRM (arithmetic mean of the experimental retention factors RM)” value (shortened to “mRM”) is 0.144; the “RM0 (relative lipophilicity, RM extrapolated to pure water)” value is 2.270; the “PC1(RM)” value was −0.624; the “b (slope)” value was −0.027. The “φ0 (chromatographic hydrophobic index)” value in data set [3] was 85.32.
`COc1ccc(-c2nc3scc(-c4ccccc4)n3n2)cc1` [Compound 9a]: the pain threshold result in data set [1] is “increased pain threshold”. Further, in data set [2], the “in vivo anti-inflammatory activity” value was “significantly reduced acute inflammation in vivo”. In data set [3], the “mRM” value is listed as 0.006; the “RM0 (relative lipophilicity, RM extrapolated to pure water)” value is 1.705; the “lipophilicity (in words)” value is “low lipophilicity”; the “PC1(RM)” value is recorded as −0.127. Moreover, in data set [3], the “b (slope)” value was −0.021 and the “φ0 (chromatographic hydrophobic index)” value amounted to 80.40.
As for `COc1ccc(-c2cn3nc(-c4ccc(OC)cc4)sc3n2)cc1` [Compound 12b], the pain threshold result in data set [1] is listed as “increased pain threshold”. Also, the “in vivo anti-inflammatory activity” value in data set [2] is given as “significantly reduced acute inflammation in vivo”. In data set [3], the “mRM” value came to 0.097; the “RM0 (relative lipophilicity, RM extrapolated to pure water)” value is 1.460; the “lipophilicity (in words)” value is “low lipophilicity”; the “PC1(RM)” value was −0.450. Moreover, in data set [3], the “b (slope)” value was −0.017 and the “φ0 (chromatographic hydrophobic index)” value is on record as 85.89.
Turning to `COc1ccc(-c2nc3scc(-c4ccc(OC)cc4)n3n2)cc1` [Compound 12a], the pain threshold result in data set [1] was “increased pain threshold”. For the same molecule, in data set [2], the “in vivo anti-inflammatory activity” value is recorded as “significantly reduced acute inflammation in vivo”. In addition, in data set [3], the “mRM” value was −0.013; the “RM0 (relative lipophilicity, RM extrapolated to pure water)” value was 1.696; the “lipophilicity (in words)” value was “low lipophilicity”; the “PC1(RM)” value is listed as −0.058. In data set [3], the “b (slope)” value is on record as −0.021 and the “φ0 (chromatographic hydrophobic index)” value is recorded as 79.62.
As for `COc1ccc(-c2cn3nc(-c4ccccc4)sc3n2)cc1` [Compound 4b], the pain threshold entry in data set [1] is listed as “increased pain threshold”. The “in vivo anti-inflammatory activity” value in data set [2] was “significantly reduced acute inflammation in vivo”. Besides, in data set [3], the “mRM” value worked out at 0.071; the “RM0 (relative lipophilicity, RM extrapolated to pure water)” value is on record as 1.805; the “lipophilicity (in words)” value is on record as “low lipophilicity”; the “PC1(RM)” value was −0.362. In addition, in data set [3], the “b (slope)” value was −0.022 and the “φ0 (chromatographic hydrophobic index)” value is given as 83.16.
In the case of `c1ccc(-c2cn3nc(-c4ccccc4)sc3n2)cc1` [Compound 1b], the pain threshold entry in data set [1] is given as “increased pain threshold”. The “in vivo anti-inflammatory activity” value in data set [2] is recorded as “significantly reduced acute inflammation in vivo”. For the same molecule, in data set [3], the “mRM” value came out at 0.072; the “RM0 (relative lipophilicity, RM extrapolated to pure water)” value is recorded as 1.955; the “PC1(RM)” value is reported as −0.365; the “b (slope)” value was −0.024. Also, the “φ0 (chromatographic hydrophobic index)” value in data set [3] worked out at 83.18.
As for `NS(=O)(=O)c1ccc(-c2nn3cc(-c4ccccc4)nc3s2)cc1` [Compound 13b], the pain threshold entry in data set [1] is “increased pain threshold”. Besides, the “in vivo anti-inflammatory activity” value in data set [2] was “significantly reduced acute inflammation in vivo”. Besides, in data set [3], the “mRM” value is recorded as −0.464; the “RM0 (relative lipophilicity, RM extrapolated to pure water)” value is reported as 0.988; the “lipophilicity (in words)” value was “the least lipophilic compounds”; the “PC1(RM)” value worked out at 1.554. Also, in data set [3], the “b (slope)” value is given as −0.018 and the “φ0 (chromatographic hydrophobic index)” value came to 53.99.
Take `COc1ccc(-c2nn3cc(-c4ccccc4)nc3s2)cc1` [Compound 9b]: the pain threshold entry in data set [1] is reported as “increased pain threshold”. Further, the “in vivo anti-inflammatory activity” value in data set [2] is given as “significantly reduced acute inflammation in vivo”. For the same molecule, in data set [3], the “mRM” value is 0.138; the “RM0 (relative lipophilicity, RM extrapolated to pure water)” value is 1.900; the “lipophilicity (in words)” value is “low lipophilicity”; the “PC1(RM)” value is on record as −0.596. Besides, in data set [3], the “b (slope)” value was −0.022 and the “φ0 (chromatographic hydrophobic index)” value is listed as 85.59.
Regarding `COc1ccc(-c2csc3nc(-c4ccccc4)nn23)cc1` [Compound 4a], the pain threshold result in data set [1] is “increased pain threshold”. Besides, the “in vivo anti-inflammatory activity” value in data set [2] is on record as “significantly reduced acute inflammation in vivo”. Moreover, in data set [3], the “mRM” value amounted to 0.031; the “RM0 (relative lipophilicity, RM extrapolated to pure water)” value is reported as 1.612; the “lipophilicity (in words)” value was “low lipophilicity”; the “PC1(RM)” value is recorded as −0.216. In data set [3], the “b (slope)” value is −0.020 and the “φ0 (chromatographic hydrophobic index)” value is on record as 81.40.
For `NS(=O)(=O)c1ccc(-c2nc3scc(-c4ccccc4)n3n2)cc1` [Compound 13a], in data set [1], the pain threshold entry is on record as “increased pain threshold”. In addition, in data set [2], the “in vivo anti-inflammatory activity” value is listed as “significantly reduced acute inflammation in vivo”. In addition, in data set [3], the “mRM” value was −0.555; the “RM0 (relative lipophilicity, RM extrapolated to pure water)” value is on record as 1.472; the “lipophilicity (in words)” value is on record as “the least lipophilic compounds”; the “PC1(RM)” value is listed as 1.875. In addition, in data set [3], the “b (slope)” value is −0.026 and the “φ0 (chromatographic hydrophobic index)” value was 57.72.
Take `c1ccc(-c2nc3scc(-c4ccccc4)n3n2)cc1` [Compound 1a]: the pain threshold entry in data set [1] is listed as “increased pain threshold”. Further, the “in vivo anti-inflammatory activity” value in data set [2] is “significantly reduced acute inflammation in vivo”. In data set [3], the “mRM” value turned out to be 0.056; the “RM0 (relative lipophilicity, RM extrapolated to pure water)” value is reported as 1.810; the “PC1(RM)” value was −0.309; the “b (slope)” value was −0.022. Also, the “φ0 (chromatographic hydrophobic index)” value in data set [3] turned out to be 82.63.

These data come from publication PMC10975611, “Heterocycles 52: The Drug-Likeness Analysis of Anti-Inflammatory Thiazolo[3,2-b][1,2,4]triazole and Imidazo[2,1-b][1,3,4]thiadiazole Derivatives” (Pharmaceuticals, 2024).
